US20250280861A1, “SWEETENER COMPOSITIONS” (Firmenich Incorporated, priority 2022, published 2025)

These compounds were tested against T1, hT1R2/T1R3 taste receptor (Homo sapiens, UniProt Q7RTX0+Q8TE23) (assay: agonist activity against the hT1R2/T1R3 taste receptor (sweet receptor based assay)). Conditions: not given.
T1 sequence (Q8TE23 20-839): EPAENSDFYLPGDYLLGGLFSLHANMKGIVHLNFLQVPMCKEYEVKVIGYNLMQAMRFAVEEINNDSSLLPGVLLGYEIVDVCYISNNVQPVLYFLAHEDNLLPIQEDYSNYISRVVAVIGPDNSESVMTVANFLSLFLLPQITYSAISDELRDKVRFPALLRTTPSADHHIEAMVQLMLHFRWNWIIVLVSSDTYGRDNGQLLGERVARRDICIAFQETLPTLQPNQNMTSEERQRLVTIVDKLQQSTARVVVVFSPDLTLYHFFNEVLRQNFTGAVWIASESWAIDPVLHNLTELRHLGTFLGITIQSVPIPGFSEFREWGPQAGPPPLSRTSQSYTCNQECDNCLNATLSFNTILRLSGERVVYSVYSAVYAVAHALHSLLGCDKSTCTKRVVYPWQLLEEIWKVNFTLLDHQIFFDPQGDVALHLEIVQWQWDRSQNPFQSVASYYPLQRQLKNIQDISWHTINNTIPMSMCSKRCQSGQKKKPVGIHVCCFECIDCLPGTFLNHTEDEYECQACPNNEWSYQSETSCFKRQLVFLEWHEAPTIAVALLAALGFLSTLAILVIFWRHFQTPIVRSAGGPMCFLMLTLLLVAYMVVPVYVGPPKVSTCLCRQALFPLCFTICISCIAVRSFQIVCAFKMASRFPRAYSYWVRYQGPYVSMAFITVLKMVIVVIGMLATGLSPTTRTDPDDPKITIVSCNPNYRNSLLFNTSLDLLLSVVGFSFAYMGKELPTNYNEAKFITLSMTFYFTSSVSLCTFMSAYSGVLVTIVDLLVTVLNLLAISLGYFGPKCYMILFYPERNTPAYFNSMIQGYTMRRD
T1 sequence (Q7RTX0 21-852): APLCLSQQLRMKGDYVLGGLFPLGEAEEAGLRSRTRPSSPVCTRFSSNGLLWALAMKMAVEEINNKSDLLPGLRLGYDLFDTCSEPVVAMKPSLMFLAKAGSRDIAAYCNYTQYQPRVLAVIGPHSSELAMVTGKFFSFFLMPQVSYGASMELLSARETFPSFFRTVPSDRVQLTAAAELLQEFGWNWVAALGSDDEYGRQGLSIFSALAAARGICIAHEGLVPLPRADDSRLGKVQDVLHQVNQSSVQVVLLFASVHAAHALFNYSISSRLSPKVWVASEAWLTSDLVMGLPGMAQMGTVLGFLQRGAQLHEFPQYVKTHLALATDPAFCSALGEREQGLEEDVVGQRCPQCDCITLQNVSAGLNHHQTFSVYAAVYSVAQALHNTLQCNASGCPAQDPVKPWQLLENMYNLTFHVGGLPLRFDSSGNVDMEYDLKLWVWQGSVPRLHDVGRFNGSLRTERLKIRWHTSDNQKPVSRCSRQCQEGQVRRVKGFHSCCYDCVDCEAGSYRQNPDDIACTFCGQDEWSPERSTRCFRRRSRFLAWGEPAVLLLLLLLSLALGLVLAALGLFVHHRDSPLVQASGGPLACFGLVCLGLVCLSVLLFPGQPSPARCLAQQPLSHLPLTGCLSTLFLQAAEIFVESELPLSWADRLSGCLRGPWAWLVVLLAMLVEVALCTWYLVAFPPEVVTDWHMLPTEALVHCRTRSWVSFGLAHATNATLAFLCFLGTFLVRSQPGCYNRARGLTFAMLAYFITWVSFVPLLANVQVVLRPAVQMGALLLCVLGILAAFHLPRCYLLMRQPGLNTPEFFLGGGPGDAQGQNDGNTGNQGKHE
Type: cell-based
Experimental: Compounds described in this application show moderate to potent agonist effect on the sweet receptor based assay. Potencies (EC50 values, e.g. see Tables 1-3) for agonist activity were measured against the hT1R2/T1R3 taste receptor. FIG. 1 exemplifies the data generated during the screening to determine EC50 values.

Row | SMILES | EC50
1 | CC(C)CNC(=O)C(C)(C)N1CCC(C#N)(c2cccc(F)c2F)CC1 [Compound 79, 2-(4-cyano-4-(2,3-difluorophenyl)piperidin-1-yl)-N-isobutyl-2-methylpropanamide] | 1.6 µM
2 | COCCNC(=O)C(C)(C)N1CCC(C#N)(c2cccc(F)c2F)CC1 [Compound 125] | > 10 µM
3 | COCC(C(=O)NCC(C)C)N1CCC(C#N)(c2cccc(F)c2F)CC1 (centres unmarked) [Compound 129] | 4.3 µM
4 | CCC(C)(C)NC(=O)C(C)(C)N1CCC(C#N)(c2cccc(F)c2F)CC1 [Compound 127] | 1.5 µM

Same assay, conditions: agonist activity, hT1R2/T1R3; read-out: Sweet EC50

Row | SMILES | EC50
5 | CC(C)CNC(=O)C(C)(C)N1CC=C(c2ccccc2C(=O)N(C)C)CC1 [Compound 73] | > 10 µM
6 | CC(C)(C(=O)NC1CC1)N1CCC(c2ccccc2)CC1 [Compound 82] | 10.4 µM
7 | CC(C)CNC(=O)C(C)(C)N1CCN(c2ccccc2C(F)(F)F)CC1 [Compound 50] | > 10 µM
8 | CC(C)CNC(=O)C(C)(C)N1CCC(c2cccc(C(=O)N(C)C)c2)CC1 [Compound 106] | > 10 µM
9 | CC(C)CNC(=O)C1(N2CCC(c3ccccc3)CC2)COC1 [Compound 112] | 4.8 µM
10 | CC(C)CNC(=O)C(C)(C)N1CCN(c2ccccc2)CC1 [Compound 34] | > 10 µM
11 | CC(C)CNC(=O)C(C)(C)N1CCN(c2ccccc2C#N)CC1 [Compound 48] | > 10 µM
12 | CC(C)CNC(=O)C(C)(C)N1CCC(c2ccccc2C(=O)N(C)C)CC1 [Compound 105] | > 10 µM
13 | Cc1cccc(N2CCN(C(C)(C)C(=O)NCCN(C)C)CC2)c1C [Compound 23] | > 10 µM
14 | CC(C)CNC(=O)C(C)(C)N1CCCC(c2ccccc2)CC1 (centres unmarked) [Compound 117] | 10.9 µM
15 | CC(C)[C@@H](C)NC(=O)C(C)(C)N1CCC(c2ccccc2)CC1 [Compound 86] | 4.4 µM
16 | CC(C)CNC(=O)C(C)(C)N1CC=C(c2cccc3c2OCO3)CC1 [Compound 72] | > 10 µM
17 | CC(C)CNC(=O)CN1CCC(c2ccccc2)CC1 [Compound 89] | 6.7 µM
18 | COC(=O)c1c(F)cccc1N1CCN(C(C)(C)C(=O)NCC(C)C)CC1 [Compound 7, Methyl 2-fluoro-6-(4-(1-(isobutylamino)-2-methyl-1-oxopropan-2-yl)piperazin-1-yl)benzoate] | 11.5 µM
19 | CC(C)CNC(=O)C(C)(C)N1CCC(c2cccc(CN(C)C)c2)CC1 [Compound 103] | > 10 µM
20 | Cc1ccccc1C1=CCN(C(C)(C)C(=O)NCC(C)C)CC1 [Compound 58] | 5.4 µM
21 | Cc1cccc(N2CCN(C(C)(C)C(=O)NCC(C)(C)O)CC2)c1C [Compound 25] | > 10 µM
22 | CC(C)CNC(=O)C(C)(C)N1CCC(c2cccc(F)c2F)CC1 [Compound 94] | 0.14 µM
23 | CCC(C)(C)NC(=O)C(C)(C)N1CCN(c2cccc(C)c2C)CC1 [Compound 19] | > 10 µM
24 | COC(=O)c1ccccc1N1CCN(C(C)(C)C(=O)NCC(C)C)CC1 [Compound 49] | > 10 µM
25 | Cc1cccc(N2CCN(CC(=O)NCC(C)C)CC2)c1C [Compound 12] | 9.7 µM
26 | COc1ccccc1N1CCN(C(C)(C)C(=O)NCC(C)C)CC1 [Compound 52] | > 10 µM
27 | Cc1cccc(N2CCN(C(C)(C)C(=O)NC3CC3)CC2)c1C [Compound 1, N-cyclopropyl-2-(4-(2,3-dimethylphenyl)piperazin-1-yl)-2-methylpropanamide] | 4.3 µM
28 | CC(C)CNC(=O)C(C)(C)N1CC=C(c2cncc(C#N)c2)CC1 [Compound 70] | > 10 µM
29 | CC(C)CNC(=O)C(C)(C)N1CCC(c2ccccc2N(C)C)CC1 [Compound 101] | > 10 µM
30 | CC(C)CNC(=O)C(C)(C)N1CC=C(c2cccc(F)c2)CC1 [Compound 62] | 3 µM
31 | CC(C)CNC(=O)C(C)(C)N1CCN(c2cc(F)ccc2F)CC1 [Compound 39] | > 10 µM
32 | Cc1cccc(N2CCN(C(C)(C)C(=O)NCC3CCCCCC3)CC2)c1C [Compound 17] | > 10 µM

Row | SMILES | EC50
33 | COc1cccc(C2=CCN(C(C)(C)C(=O)NCC(C)C)CC2)c1F [Compound 68] | > 10 µM
34 | COCC(C(=O)NCC(C)C)N1CCC(c2cccc(F)c2F)CC1 (centres unmarked) [Compound 114] | 0.4 µM
35 | Cc1cccc(N2CCN(CC(=O)NC3CC3)CC2)c1C [Compound 31] | > 10 µM
36 | CCCNC(=O)C(C)(C)N1CCN(c2cccc(C)c2C)CC1 [Compound 9] | 4.2 µM
37 | CCC(CC)CNC(=O)C(C)(C)N1CCN(c2cccc(C)c2C)CC1 [Compound 21] | > 10 µM
38 | Cc1cccc(N2CCN(C(C)(C)C(=O)NCC3CCCCC3)CC2)c1C [Compound 16] | > 10 µM
39 | Cc1cccc(C)c1N1CCN(C(C)(C)C(=O)NCC(C)C)CC1 [Compound 40] | > 10 µM
40 | Cc1cccc(C2=CCN(C(C)(C)C(=O)NCC(C)C)CC2)c1F [Compound 65] | 2.9 µM
41 | Cc1ccccc1C1CCN(C(C)(C)C(=O)NCC(C)C)CC1 [Compound 92] | 1.6 µM
42 | CCCNC(=O)C(C)(C)N1CCC(c2ccccc2)CC1 [Compound 85] | 5.5 µM
43 | CC(C)CNC(=O)C(C)(C)N1CCC2(CC1)COc1ccccc12 [Compound 122] | 2.5 µM
44 | CC(C)CNC(=O)C(C)(C)N1CCN(c2ccc(F)cc2F)CC1 [Compound 37] | > 10 µM
45 | COCc1ccccc1C1CCN(C(C)(C)C(=O)NCC(C)C)CC1 [Compound 110] | > 10 µM
46 | Cc1cccc(C2CCN(C(C)(C)C(=O)NCC(C)C)CC2)c1F [Compound 98] | 0.9 µM
47 | CC(C)(C(=O)NC1CCCC1)N1CCC(c2ccccc2)CC1 [Compound 84] | 2.5 µM
48 | CC(C)CNC(=O)C(C)(C)N1CCN(c2cccc(CO)c2F)CC1 [Compound 35] | > 10 µM
49 | CC(C)CNC(=O)C(C)(C)N1CCC(c2cccc(CO)c2F)CC1 [Compound 99] | 4.7 µM
50 | COc1cccc(C2CCN(C(C)(C)C(=O)NCC(C)C)CC2)c1F [Compound 100] | 1.4 µM
51 | Cc1cccc(N2CCN(C(C)(C)C(=O)NC3CCCCC3)CC2)c1C [Compound 13] | 9.4 µM
52 | CC(C)(C)CNC(=O)C(C)(C)N1CCC(c2ccccc2)CC1 [Compound 88] | 4.2 µM
53 | CC(C)(C(=O)NC1CCC1)N1CCC(c2ccccc2)CC1 [Compound 83] | > 10 µM
54 | CC(C)CNC(=O)C(C)(C)N1CC=C(c2cccc(CN(C)C)c2)CC1 [Compound 71] | > 10 µM
55 | Cc1ncccc1C1CCN(C(C)(C)C(=O)NCC(C)C)CC1 [Compound 108] | > 10 µM
56 | CC(C)CNC(=O)C(C)(C)N1CCN(c2c(F)cccc2F)CC1 [Compound 42] | > 10 µM
57 | COCc1c(F)cccc1N1CCN(C(C)(C)C(=O)NCC(C)C)CC1 [Compound 5, 2-(4-(3-fluoro-2-(methoxymethyl)phenyl)piperazin-1-yl)-N-isobutyl-2-methylpropanamide] | 2.1 µM
58 | COCc1ccccc1N1CCN(C(C)(C)C(=O)NCC(C)C)CC1 [Compound 47] | 6.8 µM
59 | CC(C)CNC(=O)C(C)(C)N1CCN(c2cccc(F)c2F)CC1 [Compound 3, 2-(4-(2,3-difluorophenyl)piperazin-1-yl)-N-isobutyl-2-methylpropanamide] | 1.6 µM
